Experimental data from patent US8129367B2, “Compounds for the treatment of Hepatitis C” (Bristol-Myers Squibb Company, priority 2007, dated 2012).

What was measured:
HCV NS5B = molecular target: T1, HCV NS5B (Hepatitis C virus genotype 1b, UniProt Q9WMX2); assay: HCV NS5B RdRp enzyme assay; type: biochemical; conditions: HCV NS5B RdRp genotype 1b enzyme
T1 construct: The protein was expressed with an 18 amino acid C-terminal truncation to enhance the solubility; made in house; host or cells: E. coli BL21(DE3)
Method: HCV NS5B RdRp cloning, expression, and purification. The cDNA encoding the NS5B protein of HCV, genotype 1b, was cloned into the pET21a expression vector. The protein was expressed with an 18 amino acid C-terminal truncation to enhance the solubility. The E. coli competent cell line BL21(DE3) was used for expression of the protein. Cultures were grown at 37° C. for ˜4 hours until the cultures reached an optical density of 2.0 at 600 nm. The cultures were cooled to 20° C. and induced with 1 mM IPTG. Fresh ampicillin was added to a final concentration of 50 μg/ml and the cells were grown overnight at 20° C.
Cell pellets (3 L) were lysed for purification to yield 15-24 mgs of purified NS5B. The lysis buffer consisted of 20 mM Tris-HCl, pH 7.4, 500 mM NaCl, 0.5% triton X-100, 1 mM DTT, 1 mM EDTA, 20% glycerol, 0.5 mg/ml lysozyme, 10 mM MgCl2, 15 ug/ml deoxyribonuclease I, and Complete™ protease inhibitor tablets (Roche). After addition of the lysis buffer, frozen cell pellets were resuspended using a tissue homogenizer. To reduce the viscosity of the sample, aliquots of the lysate were sonicated on ice using a microtip attached to a Branson sonicator. The sonicated lysate was centrifuged at 100,000×g for 1 hr at 4° C. and filtered through a 0.2 μm filter unit (Corning).
The protein was purified using two sequential chromatography steps: Heparin sepharose CL-6B and polyU sepharose 4B (Pharmacia). The chromatography buffers were identical to the lysis buffer but contained no lysozyme, deoxyribonuclease I, MgCl2 or protease inhibitor and the NaCl concentration of the buffer was adjusted according to the requirements for charging the protein onto the column. Each column was eluted with a NaCl gradient which varied in length from 5-50 column volumes depending on the column type. After the final chromatography step, the resulting purity of the enzyme is >90% based on SDS-PAGE analysis. The enzyme was aliquoted and stored at −80° C.
Standard HCV NS5B RdRp enzyme assay. HCV RdRp genotype 1b assays were run in a final volume of 60 μl in 96 well plates (Corning 3600). The assay buffer is composed of 20 mM Hepes, pH 7.5, 2.5 mM KCl, 2.5 mM MgCl2, 1 mM DTT, 1.6 U RNAse inhibitor (Promega N2515), 0.01 mg/ml BSA (Sigma B6917), and 2% glycerol. All compounds were serially diluted (3-fold) in DMSO and diluted further in water such that the final concentration of DMSO in the assay was 2%. HCV RdRp genotype 1b enzyme was used at a final concentration of 28 nM. A polyA template was used at 6 nM, and a biotinylated oligo-dT12 primer was used at 180 nM final concentration. Template was obtained commercially (Amersham 27-4110). Biotinylated primer was prepared by Sigma Genosys. 3H-UTP was used at 0.6 μCi (0.29 μM total UTP). Reactions were initiated by the addition of enzyme, incubated at 30° C. for 60 min, and stopped by adding 25 μl of 50 mM EDTA containing SPA beads (4 μg/μl, Amersham RPNQ 0007). Plates were read on a Packard Top Count NXT after >1 hr incubation at room temperature.
Modified HCV NS5B RdRp enzyme assay. A modified enzyme assay was performed essentially as described for the standard enzyme assay except for the following: The biotinylated oligo dT12 primer was precaptured on streptavidin-coated SPA beads by mixing primer and beads in assay buffer and incubating at room temperature for one hour. Unbound primer was removed after centrifugation. The primer-bound beads were resuspended in 20 mM Hepes buffer, pH 7.5 and used in the assay at final concentrations of 20 nM primer and 0.67 μg/μl beads. Order of addition in the assay: enzyme (1.75 nM) was added to diluted compound followed by the addition of a mixture of template (0.36 nM), 3H-UTP (0.6 μCi, 0.29 μM), and primer-bound beads, to initiate the reaction; concentrations given are final. Reactions were allowed to proceed for 4 hours at 30° C.
IC50 values for compounds were determined using seven different [I]. […]

HCV replicon cells = assay: HCV replicon FRET / luciferase assay; type: cell-based; conditions: Hepatitis C virus; 50% reduction in FRET or luciferase activity in HCV replicon cells
Method: FRET Assay Preparation. The HCV FRET screening assay was performed in 96-well cell culture plates. The FRET peptide (Anaspec, Inc.) (Taliani et al., Anal. Biochem. 1996, 240, 60-67) contains a fluorescence donor, EDANS, near one end of the peptide and an acceptor, DABCYL, near the other end. The fluorescence of the peptide is quenched by […] resonance energy transfer (RET) between the donor and the acceptor, but as the NS3 protease cleaves the peptide the products are released from RET quenching and the fluorescence of the donor becomes apparent. The assay reagent was made as follows: 5× cell Luciferase cell culture lysis reagent from Promega (#E153A) diluted to 1× with dH2O, NaCl added to 150 mM final, the FRET peptide diluted to 20 μM final from a 2 mM stock.
To prepare plates, HCV replicon cells, with or without a Renilla luciferase reporter gene, were trypsinized and plated in a 96-well plate with titrated test compounds added in columns 3 through 12; columns 1 and 2 contained a control compound (HCV control inhibitor), and the bottom row contained cells with DMSO only. The plates were then placed in a CO2 incubator at 37° C.
Assays. Subsequent to addition of the test compounds described above (FRET Assay Preparation), at various times the plate was removed and Alamar blue solution (Trek Diagnostics, #00-100) was added to measure cellular toxicity. After reading in a Cytoflour 4000 instrument (PE Biosystems), plates were rinsed with PBS and then used for FRET assay by the addition of 30 ul of the FRET peptide assay reagent described above (FRET Assay Preparation) per well. The plate was then placed into the Cytoflour 4000 instrument which had been set to 340 excite/490 emission, automatic mode for up to 20 cycles and the plate read in a kinetic mode. Typically, the signal to noise using an endpoint analysis after the reads was at least three-fold. Alternatively, after Alamar blue reading, plates were rinsed with PBS, then used for luciferase assay using the Promega Dual-Glo Luciferase Assay System or the Promega EnduRen Live Cell Substrate assay.
Compound analysis was performed by quantification of the relative HCV replicon inhibition and the relative cytotoxicity values. To calculate cytoxicity values, the average Alamar Blue fluorescence signals from the control wells were set as 100% non-toxic. The individual signals in each of the compound test wells were then divided by the average control signal and multiplied by 100% to determine […]. To calculate the HCV replicon inhibition values, an average background value was obtained from the two wells containing the highest amount of HCV control inhibitor at the end of the assay period. These numbers were similar to those obtained from naïve Huh-7 cells. The background numbers were then subtracted from the average signal obtained from the control wells and this number was used as 100% activity. The individual signals in each of the compound test wells were then divided by the averaged control values after background subtraction and multiplied by 100% to determine percent activity. EC50 values were calculated as the concentration which caused a 50% reduction in FRET or luciferase activity. The two numbers generated for the compound plate, percent cytoxicity and percent activity, were used to determine compounds of interest for further analysis.

T1 sequence (Q9WMX2 2420-2992): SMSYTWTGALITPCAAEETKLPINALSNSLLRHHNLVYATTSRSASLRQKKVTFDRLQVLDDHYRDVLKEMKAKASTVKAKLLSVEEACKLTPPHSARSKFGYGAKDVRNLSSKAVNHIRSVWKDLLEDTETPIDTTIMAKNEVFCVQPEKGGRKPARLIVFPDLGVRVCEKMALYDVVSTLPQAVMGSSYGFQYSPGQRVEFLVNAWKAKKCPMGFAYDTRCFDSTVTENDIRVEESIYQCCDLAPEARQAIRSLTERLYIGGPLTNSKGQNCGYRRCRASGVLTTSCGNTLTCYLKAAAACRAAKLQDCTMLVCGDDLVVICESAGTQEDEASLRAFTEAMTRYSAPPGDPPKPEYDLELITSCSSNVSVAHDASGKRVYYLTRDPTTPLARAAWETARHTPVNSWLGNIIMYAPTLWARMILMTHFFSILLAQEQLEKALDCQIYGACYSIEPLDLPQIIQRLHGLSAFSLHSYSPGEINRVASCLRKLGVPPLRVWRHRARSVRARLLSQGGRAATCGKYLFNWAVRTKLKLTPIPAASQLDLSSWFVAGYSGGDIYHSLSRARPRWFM

SMILES	IC50 (HCV NS5B) [nM]	EC50 (HCV replicon cells) [nM]
COc1ccc2c(c1)C1CC1(C(=O)N1C3CCC1CN(C)C3)Cn1c-2c(C2CCCCC2)c2ccc(C(=O)NC(C)(C)C(=O)N(C)C)cc21 (stereo not drawn)	4.2 to 500	4.2 to 500
COc1ccc2c(c1)C1CC1(C(=O)N1C3CCC1CN(C)C3)Cn1c-2c(C2CCCCC2)c2ccc(C(=O)NS(=O)(=O)C3(Cc4ccccc4)CC3)cc21 (stereo not drawn)	4.2 to 500	4.2 to 500
CCC#CCC1(S(=O)(=O)NC(=O)c2ccc3c(C4CCCCC4)c4n(c3c2)CC2(C(=O)N3C5CCC3CN(C)C5)CC2c2cc(OC)ccc2-4)CC1 (stereo not drawn)	4.2 to 500	4.2 to 500
COc1ccc2c(c1)C1CC1(C(=O)N1C3CCC1CN(C)C3)Cn1c-2c(C2CCCCC2)c2ccc(C(=O)NS(=O)(=O)C3([Si](C)(C)C)CC3)cc21 (stereo not drawn)	4.2 to 500	4.2 to 500
COc1ccc2c(c1)C1CC1(C(=O)N1C3CCC1CN(C)C3)Cn1c-2c(C2CCCCC2)c2ccc(C(=O)NS(=O)(=O)C3(C(=O)c4ccccc4)CC3)cc21 (stereo not drawn)	4.2 to 500	4.2 to 500
COc1ccc2c(c1)C1CC1(C(=O)N1C3CCC1CN(C)C3)Cn1c-2c(C2CCCCC2)c2ccc(C(=O)NS(=O)(=O)c3ccccc3C#N)cc21 (stereo not drawn)	4.2 to 500	4.2 to 500
COCCS(=O)(=O)NC(=O)c1ccc2c(C3CCCCC3)c3n(c2c1)CC1(C(=O)N2C4CCC2CN(C)C4)CC1c1cc(OC)ccc1-3 (stereo not drawn)	4.2 to 500	4.2 to 500
COc1ccc2c(c1)C1CC1(C(=O)N1C3CCC1CN(C)C3)Cn1c-2c(C2CCCCC2)c2ccc(C(=O)NS(=O)(=O)c3ccco3)cc21 (stereo not drawn)	4.2 to 500	4.2 to 500
COc1ccc2c(c1)C1CC1(C(=O)N1C3CCC1CN(C)C3)Cn1c-2c(C2CCCCC2)c2ccc(C(=O)NS(=O)(=O)C3(C(=O)Nc4ccccc4)CC3)cc21 (stereo not drawn)	4.2 to 500	4.2 to 500
COc1ccc2c(c1)C1CC1(C(=O)N1C3CCC1CN(C)C3)Cn1c-2c(C2CCCCC2)c2ccc(C(=O)NS(=O)(=O)c3c(C)noc3C)cc21 (stereo not drawn)	4.2 to 500	4.2 to 500
COc1ccc2c(c1)C1CC1(C(=O)N1C3CCC1CN(C)C3)Cn1c-2c(C2CCCCC2)c2ccc(C(=O)NS(=O)(=O)c3cn(C)cn3)cc21 (stereo not drawn)	4.2 to 500	4.2 to 500
COc1ccc2c(c1)C1CC1(C(=O)N1C3CCC1CN(C)C3)Cn1c-2c(C2CCCCC2)c2ccc(C(=O)NS(=O)(=O)c3ccc(C)cn3)cc21 (stereo not drawn)	4.2 to 500	4.2 to 500
COc1ccc2c(c1)C1CC1(C(=O)N1C3CCC1CN(C)C3)Cn1c-2c(C2CCCCC2)c2ccc(C(=O)NS(=O)(=O)c3ccccc3)cc21 (stereo not drawn)	4.2 to 500	4.2 to 500
COc1ccc2c(c1)C1CC1(C(=O)N1C3CCC1CN(C)C3)Cn1c-2c(C2CCCCC2)c2ccc(C(=O)NS(=O)(=O)c3cnccc3Cl)cc21 (stereo not drawn)	4.2 to 500	4.2 to 500
C=CCC1(S(=O)(=O)NC(=O)c2ccc3c(C4CCCCC4)c4n(c3c2)CC2(C(=O)N3C5CCC3CN(C)C5)CC2c2cc(OC)ccc2-4)CC1 (stereo not drawn)	4.2 to 500	4.2 to 500
COc1ccc2c(c1)C1CC1(C(=O)N1C3CCC1CN(C)C3)Cn1c-2c(C2CCCCC2)c2ccc(C(=O)NS(=O)(=O)c3cccs3)cc21 (stereo not drawn)	4.2 to 500	4.2 to 500
COc1ccc2c(c1)C1CC1(C(=O)N1C3CCC1CN(C)C3)Cn1c-2c(C2CCCCC2)c2ccc(C(=O)NS(=O)(=O)CC3CCCO3)cc21 (stereo not drawn)	4.2 to 500	4.2 to 500
COc1ccc2c(c1)C1CC1(C(=O)N1C3CCC1CN(C)C3)Cn1c-2c(C2CCCCC2)c2ccc(C(=O)NS(=O)(=O)C3CCOCC3)cc21 (stereo not drawn)	4.2 to 500	4.2 to 500
COc1ccc2c(c1)C1CC1(C(=O)N1C3CCC1CN(C)C3)Cn1c-2c(C2CCCCC2)c2ccc(C(=O)NS(=O)(=O)Cc3ccccc3)cc21 (stereo not drawn)	4.2 to 500	4.2 to 500
COc1ccc2c(c1)C1CC1(C(=O)N1C3CCC1CN(C)C3)Cn1c-2c(C2CCCCC2)c2ccc(C(=O)NS(=O)(=O)N3CCCO3)cc21 (stereo not drawn)	4.2 to 500	< 70
COc1ccc2c(c1)C1CC1(C(=O)N1C3CCC1CN(C)C3)Cn1c-2c(C2CCCCC2)c2ccc(C(=O)NS(=O)(=O)c3ccc(C)cc3OC)cc21 (stereo not drawn)	4.2 to 500	4.2 to 500
COc1ccc2c(c1)C1CC1(C(=O)N1C3CCC1CN(C)C3)Cn1c-2c(C2CCCCC2)c2ccc(C(=O)NS(=O)(=O)c3nc(C(C)(C)C)cs3)cc21 (stereo not drawn)	4.2 to 500	4.2 to 500
COc1ccc2c(c1)C1CC1(C(=O)N1C3CCC1CN(C)C3)Cn1c-2c(C2CCCCC2)c2ccc(C(=O)NS(=O)(=O)C3(C)CC3)cc21 (stereo not drawn)	4.2 to 500	4.2 to 500
C=C(C)S(=O)(=O)NC(=O)c1ccc2c(C3CCCCC3)c3n(c2c1)CC1(C(=O)N2C4CCC2CN(C)C4)CC1c1cc(OC)ccc1-3 (stereo not drawn)	4.2 to 500	4.2 to 500
COc1ccc2c(c1)C1CC1(C(=O)N1C3CCC1CN(C)C3)Cn1c-2c(C2CCCCC2)c2ccc(C(=O)NS(=O)(=O)c3cccc4cccnc34)cc21 (stereo not drawn)	4.2 to 500	4.2 to 500
COCCS(=O)(=O)NC(=O)c1ccc2c(C3CCCCC3)c3n(c2c1)C[C@@]1(C(=O)N2C4CCC2CN(C)C4)C[C@H]1c1cc(OC)ccc1-3	4.2 to 500	4.2 to 500
COc1ccc2c(c1)[C@@H]1C[C@]1(C(=O)N1C3CCC1CN(C)C3)Cn1c-2c(C2CCCCC2)c2ccc(C(=O)NS(=O)(=O)CC3CCCO3)cc21 (stereo partly drawn)	4.2 to 500	4.2 to 500
